Consider 24 molecules from patent US20240327429A1, “[1,3]Thiazolo[4,5-d]-pyrimidon-7-ones as inhibitors of NOX4” (Boehringer Ingelheim International GmbH, priority 2023, published 2024).

As usually defined, the IC50 is the concentration at which inhibition is half-maximal. Lower therefore signals inhibition by little substance.

Several values for one entry are separate records, joined by “and”; a condition that tells them apart may be missing. Identical values can stand only once.

Series [1] deals with T1, human NOX5 (hNOX5) (Homo sapiens, UniProt Q96PH1).
T1 construct: expressed in transfected cells; host or cells: HEK293
T1 sequence (Q96PH1 1-765): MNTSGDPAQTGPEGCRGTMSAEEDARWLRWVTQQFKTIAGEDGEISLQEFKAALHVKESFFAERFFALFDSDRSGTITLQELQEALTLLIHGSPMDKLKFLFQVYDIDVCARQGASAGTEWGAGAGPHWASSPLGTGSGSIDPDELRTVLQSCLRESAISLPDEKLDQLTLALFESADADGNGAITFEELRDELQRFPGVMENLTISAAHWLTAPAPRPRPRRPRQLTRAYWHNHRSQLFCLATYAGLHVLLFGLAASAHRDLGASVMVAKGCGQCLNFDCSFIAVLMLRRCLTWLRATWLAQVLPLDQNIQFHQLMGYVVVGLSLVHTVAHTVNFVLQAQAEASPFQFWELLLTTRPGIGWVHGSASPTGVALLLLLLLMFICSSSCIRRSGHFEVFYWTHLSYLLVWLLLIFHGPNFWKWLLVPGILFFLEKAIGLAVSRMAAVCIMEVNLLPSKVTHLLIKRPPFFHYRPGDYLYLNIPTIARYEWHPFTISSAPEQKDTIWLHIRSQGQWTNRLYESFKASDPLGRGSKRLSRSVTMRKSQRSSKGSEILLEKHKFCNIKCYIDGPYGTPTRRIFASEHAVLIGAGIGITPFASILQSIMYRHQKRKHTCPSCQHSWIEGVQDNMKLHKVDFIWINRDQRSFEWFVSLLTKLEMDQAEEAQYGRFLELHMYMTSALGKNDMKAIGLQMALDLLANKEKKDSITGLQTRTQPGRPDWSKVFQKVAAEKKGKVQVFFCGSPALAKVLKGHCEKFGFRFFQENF
The series can be described thus: NOX5 inhibition assay (L-012), HEK293 cells stably overexpressing human NOX5. The note with it: HEK293-hNOX5, PMA stimulated. The class given is cell-based. As to the method:
The synthetic gene hNOX5 (Accession: Q96PH1) is cloned into pcDNA3.1_Zeo. […] The final construct is verified by sequencing.
Evaluation of the NOX4 inhibitors on NOX5 activity is assessed in HEK293 cells stably overexpressing human NOX5 (hNOX5).
Cells are seeded in 384 well plates over-night. […] Cells are then stimulated with PMA at 0.1 μM to induce NOX5-dependent ROS production. […] Luminescence is measured with an PHERAstar multimode reader.

Series [2] deals with human hepatocytes. The series can be described thus: Evaluation of hepatocyte clearance (metabolic stability). The note with it: 1 μM test compound, 5% human serum, Table 3. The class given is in vitro ADME. The method, then: The metabolic degradation of the test compound is assayed in a hepatocyte suspension. Hepatocytes (cryopreserved) are incubated in Dulbecco's modified eagle medium (supplemented with […] glucagon/500 mL, 2.5 mg insulin/500 mL and 3.75 mg/500 mL hydrocortisone) containing 5% human serum.
Following a 30 min preincubation in an incubator (37° C., 10% CO2) 5 μl of test compound solution (80 μM; from 2 mM in DMSO stock solution diluted 1:25 with medium) are added into 395 μl hepatocyte suspension (cell density in the range 0.25-5 Mio cells/mL, typically 1 Mio cells/mL; final concentration of test compound 1 μM, final DMSO concentration 0.05%).
The cells are incubated for six hours (incubator, orbital shaker) and samples (25 μl) are taken at 0, 0.5, 1, 2, 4 and 6 hours. Samples are transferred into acetonitrile and pelleted by centrifugation (5 min). The supernatant is transferred to a new 96-deepwell plate, evaporated under nitrogen and resuspended.
Decline of Parent Compound is Analyzed by HPLC-MS/MS.
CLint is Calculated as Follows:
CL_[…]=Dose/AUC=(C0/CD)/(AUD+clast/k)×1000/60. • C0: initial concentration in the incubation [μM], CD: cell density of vital cells [10^6 cells/mL], AUD: area under the data [μM×h], clast: concentration of last data point [μM], • k: slope of the regression line for parent decline [h-1].
The calculated in vitro hepatic intrinsic clearance can be scaled up to the intrinsic in vivo hepatic clearance and used to predict hepatic in vivo blood clearance (CL) by the use of a liver model (well stirred model).
CL_[…]_INVIVO[ml/min/kg]=(CL_[…][μL/min/10^6 cells]×hepatocellularity[10^6 cells/g liver]×liver factor[g/kg bodyweight])/1000
CL[ml/min/kg]=CL_[…]_INVIVO[ml/min/kg]×hepatic blood flow[ml/min/kg]/(CL_[…]_INVIVO[ml/min/kg]+hepatic blood flow[ml/min/kg])

In series [3] the target is T2, human NOX4 (hNOX4) (Homo sapiens, UniProt Q9NPH5).
T2 sequence (Q9NPH5 1-578): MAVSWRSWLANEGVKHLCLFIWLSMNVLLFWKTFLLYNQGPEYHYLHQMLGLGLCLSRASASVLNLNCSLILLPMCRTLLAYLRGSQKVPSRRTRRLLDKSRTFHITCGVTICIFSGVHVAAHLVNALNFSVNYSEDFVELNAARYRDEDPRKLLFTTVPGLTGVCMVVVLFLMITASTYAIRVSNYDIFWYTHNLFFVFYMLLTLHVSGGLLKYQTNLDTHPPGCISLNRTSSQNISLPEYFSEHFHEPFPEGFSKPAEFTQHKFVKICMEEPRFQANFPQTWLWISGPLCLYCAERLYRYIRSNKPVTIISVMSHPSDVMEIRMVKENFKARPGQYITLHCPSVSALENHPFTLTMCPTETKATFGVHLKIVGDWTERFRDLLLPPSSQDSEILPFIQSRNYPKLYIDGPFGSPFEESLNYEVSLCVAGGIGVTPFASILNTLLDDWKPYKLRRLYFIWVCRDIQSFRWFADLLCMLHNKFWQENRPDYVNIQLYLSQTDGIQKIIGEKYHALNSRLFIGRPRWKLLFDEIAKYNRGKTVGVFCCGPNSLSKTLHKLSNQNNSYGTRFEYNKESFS
T2 sequence (P13498 2-195 partner limits assumed): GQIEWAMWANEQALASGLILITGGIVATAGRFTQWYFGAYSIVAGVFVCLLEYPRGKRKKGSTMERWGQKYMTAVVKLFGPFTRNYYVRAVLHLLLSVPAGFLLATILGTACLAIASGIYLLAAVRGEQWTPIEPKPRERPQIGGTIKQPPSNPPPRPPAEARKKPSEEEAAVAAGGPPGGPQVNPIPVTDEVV
The series can be described thus: cell-based.
Experimental: The synthetic gene phNOX4_DNA3_1_Zeo (Accession: AAF68973) is assembled from synthetic oligonucleotides and/or PCR products. The fragment is cloned into pcDNA3.1_Zeo_A011 using NheI and XhoI cloning sites. The plasmid DNA is purified from transformed bacteria and its concentration is determined by UV spectroscopy. The final construct is verified by sequencing. The plasmid is transfected via electroporation (Amaxa electroporation device) in combination with Nucleofector Kit V. Selection of NOX4 overexpressing genes is achieved using selection antibiotic Zeocin.
The inhibitory activity of the example compounds of the invention is determined using the following procedure:
Cells are cultured in the Dulbecco's Modified Eagle Medium (DMEM) media containing 4.5 g/L glucose supplemented with 10% fetal calf serum and 250 μg/ml Zeocin in an incubator at 37° C. with 5% CO2. For the assay, cells are seeded in 384 well plates.
After incubation Lumigen HyPerBlu™ is added and cells are incubated for additional 30 min at 24° C. in a humidified incubator. Next, luminescence is measured using an Envision Multimode Plate reader to determine levels of produced H2O2 in the wells.

For the molecule `O=c1c2scnc2nc(SCc2ccc(Cl)cc2)n1-c1ccc(O)nc1` [Example 25], the 50% inhibitory concentration (IC50) was over 100000 nM in series [1]; 100 nM and 101 nM in series [3]. The “Qh [%]” value in series [2] worked out at 41%.
Consider `O=c1c2scnc2nc(SCc2c(F)cc(F)cc2F)n1-c1cc(F)c(O)c(F)c1` [Example 8], for which the IC50 in series [1] is over 100000 nM; in series [3], 43 nM. The “Qh [%]” value in series [2] is recorded as 42%.
The corresponding values for `O=c1c2scnc2nc(SCc2c(F)cc(F)cc2F)n1-c1ccc(O)c(Cl)c1` [Example 16] are 36000 nM, 367 nM and 73%.
Take `Cc1cc(F)ccc1CSc1nc2ncsc2c(=O)n1-c1ccc(O)nc1` [Example 29]: the IC50 in series [1] is over 100000 nM; in series [3] it was 150 nM and 145 nM. In series [2], the “Qh [%]” value was 54%.
On to `O=c1c2scnc2nc(SCc2ccc(C(F)(F)F)cc2F)n1-c1cnc(O)nc1` [Example 57], for which the IC50 in series [1] was over 100000 nM; in series [3], 124 nM. Besides, in series [2], the “Qh [%]” value was determined as 7%.
The corresponding values for `O=c1c2scnc2nc(SCc2c(F)cc(F)cc2F)n1-c1ncc(O)cn1` [Example 21, 6-(5-Hydroxypyrimidin-2-yl)-5-((2,4,6-trifluorobenzyl)thio)thiazolo[4,5-d]pyrimidin-7(6H)-one] are over 100000 nM, 174 nM and 27%.
In the same order, the values of `O=c1c2scnc2nc(SCc2c(F)cc(F)cc2F)n1-c1ccc(O)cc1Cl` [Example 17] are 17500 nM, 314 nM and 70%.
The corresponding values for `O=c1c2scnc2nc(SCc2c(F)cc(F)cc2F)n1-c1cc(F)c(O)nc1F` [Example 51, 6-(2,5-Difluoro-6-hydroxypyridin-3-yl)-5-((2,4,6-trifluorobenzyl)thio)thiazolo[4,5-d]-pyrimidin-7(6H)-one] are 59400 nM, 51 nM and 10%.
With `O=c1c2scnc2nc(SCc2ccc(Cl)cc2)n1-c1cnc(O)nc1` [Example 56], the figures for the IC50 in series [1] and in series [3] were over 100000 nM and 153 nM, respectively. Also, the “Qh [%]” value in series [2] is under 4%.
In the same order, the values of `Cc1cc(F)cc(C)c1CSc1nc2ncsc2c(=O)n1-c1ccc(O)nc1` [Example 24] are over 100000 nM, 98 nM and 45%.
The corresponding values for `O=c1c2scnc2nc(SCc2ccc(C(F)(F)F)cc2F)n1-c1ccc(O)nn1` [Example 65] are over 100000 nM, 137 nM and 50%.
In the same order, the values of `O=c1c2scnc2nc(SCc2c(F)cc(F)cc2F)n1-c1ccc(O)cc1F` [Example 14] are 10200 nM, 38 nM and 73%.
Consider `O=c1c2scnc2nc(SCc2c(F)cc(F)cc2F)n1-c1ccc(O)c(F)c1` [Example 11], for which the IC50 stood at 13000 nM in series [1] and 42 nM in series [3]. Further, the “Qh [%]” value in series [2] is on record as 79%.
The corresponding values for `O=c1c2scnc2nc(SCc2c(F)cc(F)cc2F)n1-c1ccc(O)nc1F` [Example 50, 6-(2-Fluoro-6-hydroxypyridin-3-yl)-5-((2,4,6-trifluorobenzyl)thio)thiazolo[4,5-d]-pyrimidin-7(6H)-one] are 60200 nM, 47 nM and 19%.
In the case of `Cc1cc(Cl)ccc1CSc1nc2ncsc2c(=O)n1-c1cnc(O)c(F)c1` [Example 37], the IC50 worked out at 64500 nM in series [1] and 34 nM in series [3]. In addition, in series [2], the “Qh [%]” value was determined as 16%.
In the same order, the values of `O=c1c2scnc2nc(SCc2ccc(Br)cc2F)n1-c1cnc(O)c(F)c1` [Example 34] are 46500 nM, 29 nM and 8%.
In the same order, the values of `O=c1c2scnc2nc(SCc2c(F)cc(F)cc2F)n1-c1ccc(O)nc1` [Example 28] are over 100000 nM, 136 nM and 29%.
In the same order, the values of `O=c1c2scnc2nc(SCc2ccc(Cl)cc2F)n1-c1ccc(O)nn1` [Example 61, 5-((4-Chloro-2-fluorobenzyl)thio)-6-(6-hydroxypyridazin-3-yl)thiazolo[4,5-d]pyrimidin-7(6H)-one] are over 100000 nM, 103 nM and 55%.
On to `O=c1c2scnc2nc(SCc2ccc(Cl)cc2)n1-c1cnc(O)c(F)c1` [Example 33], for which the concentration for half-maximal inhibition (IC50) in series [1] is over 100000 nM; in series [3], 29 nM. Further, in series [2], the “Qh [%]” value amounted to 15%.
In the same order, the values of `O=c1c2scnc2nc(SCc2ccc(Cl)cc2F)n1-c1cnc(O)nc1` [Example 53, 5-((4-Chloro-2-fluorobenzyl)thio)-6-(2-hydroxypyrimidin-5-yl)thiazolo[4,5-d]pyrimidin-7(6H)-one] are over 100000 nM, 116 nM and 13%.
Regarding `O=c1c2scnc2nc(SCc2ccc(Cl)cc2Cl)n1-c1cnc(O)c(F)c1` [Example 39], the values for the 50% inhibitory concentration (IC50) in series [1] and in series [3] were 47900 nM and 56 nM, respectively. Further, the “Qh [%]” value in series [2] worked out at 26%.
The corresponding values for `O=c1c2scnc2nc(SCc2c(F)cc(F)cc2F)n1-c1cnc(O)c(F)c1F` [Example 52, 6-(4,5-Difluoro-6-hydroxypyridin-3-yl)-5-((2,4,6-trifluorobenzyl)thio)thiazolo[4,5-d]-pyrimidin-7(6H)-one] are 38900 nM, 52 nM and 20%.
The corresponding values for `O=c1c2scnc2nc(SCc2c(F)cc(F)cc2F)n1-c1cc(F)c(O)cc1F` [Example 10, 6-(2,5-Difluoro-4-hydroxyphenyl)-5-((2,4,6-trifluorobenzyl)thio)thiazolo[4,5-d]pyrimidin-7(6H)-one] are 11500 nM, 27 nM and 72%.
The corresponding values for `Cc1cc(Cl)ccc1CSc1nc2ncsc2c(=O)n1-c1ccc(O)nn1` [Example 62] are over 100000 nM, 127 nM and 58%.
